# Laboratory results from patent US5358951A, “Angiotensin II receptor blocking 2, 3, 6 substituted quinazolinones” (American Cyanamid Company, priority 1993, dated 1994).
# Test system: vasopressor response of angiotensin II
# Experiment: AII Challenge: antagonism of angiotensin II vasopressor response;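 as to Response Average Change: post-dose Angiotensin II-evoked rise in systolic blood pressure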
# Format: in vivo
# Details: for inhibition in vivo at 3 mg/kg / inhibition in vivo at 5 mg/kg: Rattus norvegicus; for inhibition in vivo at 3 mg/kg: iv; for inhibition in vivo at 5 mg/kg: po
# Source text: Conscious Male Okamoto-Aoki SHR, 16-20 weeks old, weighing approximately 330 g are purchased from Charles River Labs (Wilmington, Mass.). Conscious rats are restrained in a supine position with elastic tape. The area at the base of the tail is locally anesthetized by subcutaneous infiltration with 2% procaine. The ventral caudal artery and vein are isolated, and a cannula made of polyethylene (PE) 10-20 tubing (fused together by heat) is passed into the lower abdominal aorta and vena cava, respectively. The cannula is secured, heparinized (1,000 I.U./ml), sealed and the wound is closed. The animals are placed in plastic restraining cages in an upright position. The cannula is attached to a Statham P23 Db pressure transducer, and pulsatile blood pressure is recorded to 10-15 minutes with a Gould Brush recorder. (Chan et al., (Drug Development Res., 18:75-94, 1989). Angiotensin II (human sequence, Sigma Chem. Co., St. Louis, Mo.) of 0.05 and 0.1 ug/kg i.v. is injected into all rats (predosing response). Then a test compound, vehicle or a known angiotensin II antagonist is administered i.v., i.p. or orally to each set of rats. The two doses of angiotensin II are given to each rat again at 30, 60, 90, 120, 180, 240 and 300 minutes post dosing the compound or vehicle. The vasopressor response of angiotensin II is measured for the increase in systolic blood pressure in mmHg. The percentage of antagonism or blockade of the vasopressor response of angiotensin II by a compound is calculated using the vasopressor response (increase in systolic blood pressure) of angiotensin II of each rat predosing the compound as 100%.
# [1] = 3 mg/kg I.V., AII 0.05 mcg/kg IV, 30 min post dose
# [2] = 3 mg/kg I.V., AII 0.05 mcg/kg IV, 60 min post dose
# [3] = 3 mg/kg I.V., AII 0.05 mcg/kg IV, 90 min post dose
# [4] = 3 mg/kg I.V., AII 0.05 mcg/kg IV, 120 min post dose
# [5] = 3 mg/kg I.V., AII 0.05 mcg/kg IV, 180 min post dose
# [6] = 3 mg/kg I.V., AII 0.05 mcg/kg IV, 240 min post dose
# [7] = 3 mg/kg I.V., AII 0.1 mcg/kg IV, 30 min post dose
# [8] = 3 mg/kg I.V., AII 0.1 mcg/kg IV, 60 min post dose
# [9] = 3 mg/kg I.V., AII 0.1 mcg/kg IV, 90 min post dose
# [10] = 3 mg/kg I.V., AII 0.1 mcg/kg IV, 120 min post dose
# [11] = 3 mg/kg I.V., AII 0.1 mcg/kg IV, 180 min post dose
# [12] = 3 mg/kg I.V., AII 0.1 mcg/kg IV, 240 min post dose
# [13] = 0.5 h, 3 mg/kg I.V., AII 0.05 mcg/kg IV, 30 min post dose
# [14] = 0.5 h, 3 mg/kg I.V., AII 0.1 mcg/kg IV, 30 min post dose
# [15] = 1 h, 3 mg/kg I.V., AII 0.05 mcg/kg IV, 60 min post dose
# [16] = 1 h, 3 mg/kg I.V., AII 0.1 mcg/kg IV, 60 min post dose
# [17] = 2 h, 3 mg/kg I.V., AII 0.05 mcg/kg IV, 120 min post dose
# [18] = 2 h, 3 mg/kg I.V., AII 0.1 mcg/kg IV, 120 min post dose
# [19] = 3 h, 3 mg/kg I.V., AII 0.05 mcg/kg IV, 180 min post dose
# [20] = 3 h, 3 mg/kg I.V., AII 0.1 mcg/kg IV, 180 min post dose
# [21] = 4 h, 3 mg/kg I.V., AII 0.05 mcg/kg IV, 240 min post dose
# [22] = 4 h, 3 mg/kg I.V., AII 0.1 mcg/kg IV, 240 min post dose
# [23] = […], 3 mg/kg I.V., AII 0.05 mcg/kg IV, 90 min post dose
# [24] = […], 3 mg/kg I.V., AII 0.1 mcg/kg IV, 90 min post dose
compound,measurement,setting,value
"CCCCc1nc2ccc([C@]3(C)C[C@@H]4CCC(C)(C)N4O3)cc2c(=O)n1Cc1ccc(-c2ccccc2-c2nnn[nH]2)cc1 (relative stereo) [Example 69, Trans-2-Butyl-6-(hexahydro-2,6,6-trimethylpyrrolo[1,2-b]isoxazol-2-yl)-3-[[2'-(1H-tetrazol-5-yl)[1,1'-biphenyl]-4-yl]methyl]-4(3H)-quinazolinone]",Response Average Change,[1],0 mmHg
same,Response Average Change,[2],2.5 mmHg
same,Response Average Change,[3],2.5 mmHg
same,Response Average Change,[4],5 mmHg
same,Response Average Change,[5],2.5 mmHg
same,Response Average Change,[6],5 mmHg
same,Response Average Change,"3 mg/kg I.V., AII 0.05 mcg/kg IV, 300 min post dose",10 mmHg
same,Response Average Change,[7],0 mmHg
same,Response Average Change,[8],0 mmHg
same,Response Average Change,[9],25 mmHg
same,Response Average Change,[10],2.5 mmHg
same,Response Average Change,[11],0 mmHg
same,Response Average Change,[12],7.5 mmHg
same,Response Average Change,"3 mg/kg I.V., AII 0.1 mcg/kg IV, 300 min post dose",12.5 mmHg
same,inhibition in vivo at 3 mg/kg,[13],100%
same,inhibition in vivo at 3 mg/kg,[14],100%
same,inhibition in vivo at 3 mg/kg,[15],92%
same,inhibition in vivo at 3 mg/kg,[16],100%
same,inhibition in vivo at 3 mg/kg,[17],83%
same,inhibition in vivo at 3 mg/kg,[18],94%
same,inhibition in vivo at 3 mg/kg,[19],92%
same,inhibition in vivo at 3 mg/kg,[20],100%
same,inhibition in vivo at 3 mg/kg,[21],83%
same,inhibition in vivo at 3 mg/kg,[22],81%
same,inhibition in vivo at 3 mg/kg,"5 h, 3 mg/kg I.V., AII 0.05 mcg/kg IV, 300 min post dose",67%
same,inhibition in vivo at 3 mg/kg,"5 h, 3 mg/kg I.V., AII 0.1 mcg/kg IV, 300 min post dose",69%
same,inhibition in vivo at 3 mg/kg,[23],92%
same,inhibition in vivo at 3 mg/kg,[24],94%
"CCCCc1nc2ccc([C@]3(C)C[C@@H]4CCCN4O3)cc2c(=O)n1Cc1ccc(-c2ccccc2-c2nnn[nH]2)cc1 (relative stereo) [Example 59, Trans-2-Butyl-6-(hexahydro-2-methylpyrrolo[1,2-b]isoxazol-2-yl)-3-[[2'-(1H-tetrazol-5-yl)[1,1'-biphenyl]-4-yl]methyl]-4(3H)-quinazolinone]",Response Average Change,[1],17.5 mmHg
same,Response Average Change,[2],9 mmHg
same,Response Average Change,[3],18.5 mmHg
same,Response Average Change,[4],9.5 mmHg
same,Response Average Change,[5],20 mmHg
same,Response Average Change,[6],18.5 mmHg
same,Response Average Change,[7],21 mmHg
same,Response Average Change,[8],23.5 mmHg
same,Response Average Change,[9],17.5 mmHg
same,Response Average Change,[10],12.5 mmHg
same,Response Average Change,[11],22.5 mmHg
same,Response Average Change,[12],27.5 mmHg
same,Response Average Change,"5 mg/kg P.O., AII 0.05 mcg/kg IV, 30 min post dose",19 mmHg
same,Response Average Change,"5 mg/kg P.O., AII 0.05 mcg/kg IV, 60 min post dose",12.5 mmHg
same,Response Average Change,"5 mg/kg P.O., AII 0.05 mcg/kg IV, 90 min post dose",17.5 mmHg
same,Response Average Change,"5 mg/kg P.O., AII 0.05 mcg/kg IV, 120 min post dose",24 mmHg
same,Response Average Change,"5 mg/kg P.O., AII 0.05 mcg/kg IV, 180 min post dose",18.5 mmHg
same,Response Average Change,"5 mg/kg P.O., AII 0.05 mcg/kg IV, 240 min post dose",12.5 mmHg
same,Response Average Change,"5 mg/kg P.O., AII 0.05 mcg/kg IV, 300 min post dose",12.5 mmHg
same,Response Average Change,"5 mg/kg P.O., AII 0.1 mcg/kg IV, 30 min post dose",22.5 mmHg
same,Response Average Change,"5 mg/kg P.O., AII 0.1 mcg/kg IV, 60 min post dose",12.5 mmHg
same,Response Average Change,"5 mg/kg P.O., AII 0.1 mcg/kg IV, 90 min post dose",17.5 mmHg
same,Response Average Change,"5 mg/kg P.O., AII 0.1 mcg/kg IV, 120 min post dose",17.5 mmHg
same,Response Average Change,"5 mg/kg P.O., AII 0.1 mcg/kg IV, 180 min post dose",14 mmHg
same,Response Average Change,"5 mg/kg P.O., AII 0.1 mcg/kg IV, 240 min post dose",10 mmHg
same,Response Average Change,"5 mg/kg P.O., AII 0.1 mcg/kg IV, 300 min post dose",10 mmHg
same,inhibition in vivo at 3 mg/kg,[13],49%
same,inhibition in vivo at 3 mg/kg,[14],49%
same,inhibition in vivo at 3 mg/kg,[15],74%
same,inhibition in vivo at 3 mg/kg,[16],43%
same,inhibition in vivo at 3 mg/kg,[17],72%
same,inhibition in vivo at 3 mg/kg,[18],70%
same,inhibition in vivo at 3 mg/kg,[19],41%
same,inhibition in vivo at 3 mg/kg,[20],45%
same,inhibition in vivo at 3 mg/kg,[21],46%
same,inhibition in vivo at 3 mg/kg,[22],33%
same,inhibition in vivo at 3 mg/kg,[23],46%
same,inhibition in vivo at 3 mg/kg,[24],57%
same,inhibition in vivo at 5 mg/kg,"0.5 h, 5 mg/kg P.O., AII 0.05 mcg/kg IV, 30 min post dose",49%
same,inhibition in vivo at 5 mg/kg,"0.5 h, 5 mg/kg P.O., AII 0.1 mcg/kg IV, 30 min post dose",49%
same,inhibition in vivo at 5 mg/kg,"1 h, 5 mg/kg P.O., AII 0.05 mcg/kg IV, 60 min post dose",67%
same,inhibition in vivo at 5 mg/kg,"1 h, 5 mg/kg P.O., AII 0.1 mcg/kg IV, 60 min post dose",72%
same,inhibition in vivo at 5 mg/kg,"2 h, 5 mg/kg P.O., AII 0.05 mcg/kg IV, 120 min post dose",36%
same,inhibition in vivo at 5 mg/kg,"2 h, 5 mg/kg P.O., AII 0.1 mcg/kg IV, 120 min post dose",60%
same,inhibition in vivo at 5 mg/kg,"3 h, 5 mg/kg P.O., AII 0.05 mcg/kg IV, 180 min post dose",51%
same,inhibition in vivo at 5 mg/kg,"3 h, 5 mg/kg P.O., AII 0.1 mcg/kg IV, 180 min post dose",68%
same,inhibition in vivo at 5 mg/kg,"4 h, 5 mg/kg P.O., AII 0.05 mcg/kg IV, 240 min post dose",67%
same,inhibition in vivo at 5 mg/kg,"4 h, 5 mg/kg P.O., AII 0.1 mcg/kg IV, 240 min post dose",77%
same,inhibition in vivo at 5 mg/kg,"5 h, 5 mg/kg P.O., AII 0.05 mcg/kg IV, 300 min post dose",67%
same,inhibition in vivo at 5 mg/kg,"5 h, 5 mg/kg P.O., AII 0.1 mcg/kg IV, 300 min post dose",77%
same,inhibition in vivo at 5 mg/kg,"[…], 5 mg/kg P.O., AII 0.05 mcg/kg IV, 90 min post dose",53%
same,inhibition in vivo at 5 mg/kg,"[…], 5 mg/kg P.O., AII 0.1 mcg/kg IV, 90 min post dose",60%
